Test results as given in patent publication US8673587B2, “Methods for identifying allosteric and other novel acyl-coenzyme A:cholesterol acyltransferase inhibitors” (Trustees of Dartmouth College, priority 2010, dated 2014).

Tests used:
[1] = target: T1, histidine-tagged recombinant human ACAT2 (Homo sapiens, UniProt O75908); test: Pregnenolone esterification in mixed micelles, ACAT2 as enzyme source; format: biochemical; conditions: ACAT2; for activation of pregnenolone esterification by sterol: sterol at 0.32 mM, 1 μM [3H]-pregnenolone
T1 construct: made in house; partially purified on a nickel column
T1 sequence (O75908 1-522): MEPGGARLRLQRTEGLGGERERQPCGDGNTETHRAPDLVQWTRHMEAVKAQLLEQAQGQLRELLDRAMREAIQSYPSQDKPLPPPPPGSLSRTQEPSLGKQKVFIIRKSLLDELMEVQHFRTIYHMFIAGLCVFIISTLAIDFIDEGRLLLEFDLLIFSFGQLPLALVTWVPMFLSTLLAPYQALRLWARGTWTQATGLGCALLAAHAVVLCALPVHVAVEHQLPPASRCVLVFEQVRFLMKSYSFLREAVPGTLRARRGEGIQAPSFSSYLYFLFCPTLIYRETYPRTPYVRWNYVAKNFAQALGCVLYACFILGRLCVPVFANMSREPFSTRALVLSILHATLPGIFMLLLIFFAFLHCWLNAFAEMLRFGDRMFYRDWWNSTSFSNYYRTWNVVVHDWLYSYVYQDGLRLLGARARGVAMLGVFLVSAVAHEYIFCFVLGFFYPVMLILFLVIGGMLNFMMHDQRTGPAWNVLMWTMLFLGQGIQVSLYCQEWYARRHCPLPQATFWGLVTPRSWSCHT
Description: (§1) The method of the present invention was developed in experiments using a mixed micelle enzyme assay system. […] A candidate ACAT inhibitor is an allosteric inhibitor if it is shown in the method of the present invention to inhibit cholesterol-dependent pregnenolone esterification but not to inhibit the basal pregnenolone esterification when cholesterol is absent in the assay mixture. […] In the assay system of the present invention, the source of ACAT was histidine-tagged recombinant human ACAT1 or human ACAT2, stably expressed in Chinese hamster ovary (CHO) cells that lack endogenous ACAT activity. However, one of skill in the art could employ other suitable mammalian cell systems as needed. The enzyme preparations used in the present method were partially purified through the use of nickel column chromatography, as described previously (Liu et al. 2005. Biochem. J. 391:389-397), using cells that stably expressing histidine-tagged recombinant human ACAT1 or human ACAT2 as the enzyme source.
(§2) In developing the method of the present invention, a series of experiments was performed. Pregnenolone is one compound that contains the classical A, B, C, D steroid rings as well as a 3 beta-OH moiety. Based on its structure, pregnenolone may be an ACAT substrate. However, this possibility had not previously been tested experimentally. In the present invention, the activity of pregnenolone was tested by using radiolabeled pregnenolone ([^3H]-pregnenolone) in a mixed micelle enzyme assay mixture that contained the detergent taurocholate (or CHAPS), phosphatidylcholine, and oleyl-coenzyme A bound to bovine serum albumin (BSA). The enzyme used was histidine-tagged human ACAT1 or human ACAT2. The esterification of pregnenolone (i.e., formation of pregnenolone oleate) was monitored by performing lipid extraction to isolate [^3H]-pregnenolone oleate and [^3H]-pregnenolone. [^3H]-pregnenolone oleate was then separated from [^3H]-pregnenolone by using conventional thin-layer chromatography. Levels of [^3H]-pregnenolone oleate formed was measured using a scintillation counter. […] Thus, using ACAT1 as the enzyme source, the esterification of DHEA was examined (FIG. 1C).
(§3) To assay the enzyme, the pregnenolone/detergent/PC micelles and the cholesterol/detergent/PC micelles were prepared individually as follows: the radiolabeled pregnenolone/PC mixture or the cholesterol/PC mixture was prepared as described previously (Shi et al. 1989. Biochim. Biophys. Acta 982:187-195) and lyophilized to remove residual organic solvents. After lyophilization, the detergent sodium taurocholate (or other detergent such as CHAPS) in Buffer A was added to reach a final concentration of 10 mg/ml. The mixture was purged with nitrogen, followed by sonication until this mixture was clear. The pregnenolone/PC micelles were mixed with the cholesterol/PC micelles such that the cholesterol concentration is at 0 mM or at 0.32 mM, and the radioactive pregnenolone concentration is at 1 μM (specific activity 20 Ci/mmol).

[2] = target: T2, HisACAT1/FLAG (recombinant hACAT1) (Homo sapiens, UniProt P35610, M1L); test: Ligand binding by change in intrinsic (tryptophan) fluorescence of HisACAT1/FLAG; conditions: for maximal increase in fluorescence peak height with respect to unliganded ACAT1 protein: excitation 295 nm, peak 330 nm
T2 construct: hACAT1 contains 550 amino acids; made in house
T2 sequence (P35610 1-550 M1L): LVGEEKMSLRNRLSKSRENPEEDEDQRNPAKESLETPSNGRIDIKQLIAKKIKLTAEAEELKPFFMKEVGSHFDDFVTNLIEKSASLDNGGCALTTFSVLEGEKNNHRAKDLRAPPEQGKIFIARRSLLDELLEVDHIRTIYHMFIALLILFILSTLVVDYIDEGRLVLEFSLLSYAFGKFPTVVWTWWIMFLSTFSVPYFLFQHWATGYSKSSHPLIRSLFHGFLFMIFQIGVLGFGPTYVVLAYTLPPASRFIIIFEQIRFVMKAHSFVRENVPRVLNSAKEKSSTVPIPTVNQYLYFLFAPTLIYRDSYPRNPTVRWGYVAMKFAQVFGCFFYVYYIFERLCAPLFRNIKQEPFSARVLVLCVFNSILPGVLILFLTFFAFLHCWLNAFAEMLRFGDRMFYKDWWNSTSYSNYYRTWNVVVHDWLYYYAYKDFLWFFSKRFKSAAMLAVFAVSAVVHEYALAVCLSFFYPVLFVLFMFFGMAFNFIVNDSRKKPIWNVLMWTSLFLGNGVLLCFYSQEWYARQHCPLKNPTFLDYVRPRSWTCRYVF
Description: Fluorescence measurements were generated using an ISS PC1 photocounting fluorescence spectrophotometer (model 90095). This instrument has continuously reproducible slits ranging from 0.4 to 32 nm band-pass. The excitation slit width was set at 2 nm. The wavelength for excitation was set at 295 nm in order to minimize the contribution of tyrosine residues to the fluorescence. Purified HisACAT1/FLAG was concentrated using 30K AMICON centrifugal filters such that the final concentration of the protein was 100-200 ng/μL (1.5-3 μM). Purified protein was stored at −80° C. until used. Unless stated otherwise, the fluorescence measurements were performed at pH 7.8 with 50 mM potassium phosphate, 0.5M KCl, and 8.13 mM CHAPS. Sterol (cholesterol, epicholesterol, coprostanol, and epicoprostanol) was prepared as CHAPS/PC/sterol mixed micelles (with CHAPS at 8.13 mM, PC at 4 mM, and with varying concentrations of sterols as indicated) and stored at 20° C. in the dark until usage. The fatty acyl-CoAs were dissolved in 20 mM sodium acetate at pH 6.4 as a 2 mM stock and stored at −80° C. until used. Before the experiment started, all reagents were kept on ice in the dark. To begin the experiment, 50 μL of mixed micelles without or with sterols was added into a HELLMA microcuvette with 3 mm light path. Twenty-five microliters of ACAT1 protein (in 8.13 mM CHAPS and 0.5 M KCl) was then added and rapidly mixed. Fluorescence was monitored within 15 seconds of adding the enzyme. The sample compartment of the instrument was maintained at 20° C. The fluorescence emission spectrum was scanned in 2 minutes between 310 and 410 nm. The differences in fluorescence intensity at 10 intervals within 325-335 nm were averaged in order to calculate the ΔF value between the ligated protein vs that of the unligated protein.
Binding studies were subsequently conducted by monitoring the effect of increasing concentrations of oleoyl-CoA on the intrinsic fluorescence of HisACAT1/FLAG. […] However, the maximal change in the peak of the spectrum was much smaller (5% with respect to the unliganded protein). […] The data was analyzed for a simple bimolecular dissociation equilibrium using the PRISM program.
Binding experiments were subsequently performed by monitoring the effect of increasing concentrations of cholesterol, from 10 to 600 μM, on the intrinsic fluorescence of HisACAT1/FLAG. […] It was estimated that the cholesterol concentration that caused half-maximal spectral change was 35 μM. […] The changes in the intrinsic fluorescence of ACAT1 caused by cholesterol, epicholesterol, coprostanol, or epicoprostanol as the ligand were also compared.

[3] = target: T3, histidine-tagged recombinant human ACAT1 (Homo sapiens, UniProt P35610, M1L); test: Steroid (pregnenolone/DHEA/E2) esterification in mixed micelles, ACAT1 as enzyme source; format: biochemical; conditions: for activation of pregnenolone esterification by sterol: sterol at 0.32 mM, 1 μM [3H]-pregnenolone; for ACAT1 substrate activity: 1 μM [3H]-steroid
T3 construct: hACAT-1 cDNA (nucleotide residues 1397-3046, a total of 550 amino acids); made in house; partially purified on a nickel column
T3 sequence (P35610 1-550 M1L): T2 sequence (P35610 1-550 M1L)
Description: as §1, §2
A pregnenolone substrate saturation curve was then constructed, with or without addition of cholesterol to the assay mixture, using ACAT1 as the enzyme source (FIG. 2A). […] Then, a DHEA substrate saturation curve was constructed, with cholesterol present.
Further experiments were performed to examine the effect of adding various non-oxysterols, at a concentration of 0.32 mM, on pregnenolone esterification in vitro, with ACAT1 as the enzyme source.
as §3

[4] = system: amyloid precursor protein (APP); conditions: cited from earlier work

Structure (SMILES): CC(C)CCC[C@@H](C)[C@H]1CC[C@H]2[C@@H]3CC=C4C[C@@H](O)CC[C@]4(C)[C@H]3CC[C@]12C [cholesterol]
- activation of pregnenolone esterification ([1]; cholesterol added to assay mixture): more than 100 fold
- activation of pregnenolone esterification by sterol [1]: maximal activation
- maximal increase in fluorescence peak height with respect to unliganded ACAT1 protein [2]: up to 35%
- EC50 ([2]; ligand 10 to 600 μM, read-out: concentration that caused half-maximal spectral change): 35 µM
- activation of pregnenolone esterification ([3]; ACAT1, cholesterol added to assay mixture): more than 100 fold
- activation of pregnenolone esterification by sterol ([3]; ACAT1): maximal activation

Structure (SMILES): CC(C)CC[C@@H](O)[C@@H](C)[C@H]1CC[C@H]2[C@@H]3CC=C4C[C@@H](O)CC[C@]4(C)[C@H]3CC[C@]12C [22R-hydroxy-cholesterol]
- activation of pregnenolone esterification by sterol ([3]; ACAT1): least activation

Structure (SMILES): C[C@]12CC[C@H](O)CC1=CC[C@@H]1[C@@H]2CC[C@]2(C)C(=O)CC[C@@H]12 [DHEA, dihydroepiandrosterone]
- ACAT1 substrate activity ([3]; absence of cholesterol): did not exhibit ACAT substrate activity
- ACAT1 substrate activity ([3]; presence of excess cholesterol (0.32 mM)): exhibited significant substrate activity
- apparent Km as ACAT1 substrate ([3]; with cholesterol present in vitro (0.32 mM)): too high to be measurable

Structure (SMILES): CCCCCCCC[C@H](SCCCCCC)C(=O)Nc1c(SC)cc(C)nc1SC [CP113818]
- full-length human APP content ([4]; animal model for AD): did not cause a reduction
- processing of APP ([4]; animal models for AD): inhibit the processing of both human amyloid precursor protein (APP) and mouse APP

Structure (SMILES): CC[C@H](CC[C@@H](C)[C@H]1CC[C@H]2[C@@H]3CC=C4C[C@@H](O)CC[C@]4(C)[C@H]3CC[C@]12C)C(C)C [Sitosterol]
- activation of pregnenolone esterification by sterol [1]: only slightly activated
- activation of pregnenolone esterification by sterol ([3]; ACAT1): not as efficiently as cholesterol

Structure (SMILES): CCCCCCCCCCCCCCCCCC(=O)SCCNC(=O)CCNC(=O)[C@H](O)C(C)(C)COP(=O)(O)OP(=O)(O)OC[C@H]1O[C@@H](n2cnc3c(N)ncnc32)[C@H](O)[C@@H]1OP(=O)(O)O [stearoyl-CoA]
- maximal increase in fluorescence peak height with respect to unliganded ACAT1 protein [2]: 5%
- dissociation constant ([2]; simple bimolecular dissociation equilibrium, PRISM): too small to derive a reliable dissociation constant

Structure (SMILES): CC(C)CCC[C@@H](C)[C@H]1CC[C@H]2[C@@H]3CC=C4C[C@H](O)CC[C@]4(C)[C@H]3CC[C@]12C [Epi-cholesterol]
- maximal increase in fluorescence peak height with respect to unliganded ACAT1 protein [2]: much smaller than those caused by cholesterol
- concentration that caused half-maximal spectral change ([2]; ligand 10 to 600 μM): too small to derive a reliable binding curve
- activation of pregnenolone esterification by sterol ([3]; ACAT1): much less efficiently than sitosterol

Structure (SMILES): CC(C)CCC[C@@H](C)[C@H]1CC[C@H]2[C@@H]3[C@H](O)C=C4C[C@@H](O)CC[C@]4(C)[C@H]3CC[C@]12C [7-alpha-OH-cholesterol]
- activation of pregnenolone esterification by sterol ([3]; ACAT1): least activation

Structure (SMILES): CC(C)[C@@H](C)/C=C/[C@@H](C)[C@H]1CC[C@H]2C3=CC=C4C[C@@H](O)CC[C@]4(C)C3=CC[C@]12C [dehydroergosterol]
- activation of pregnenolone esterification by sterol ([3]; ACAT1): much less efficiently than sitosterol

Structure (SMILES): CC(C)CCCC(C)C1CCC2C3CC=C4CC(O)CCC4(C)C3CCC12C (single isomer, unassigned) [enantiomeric (ent-)cholesterol]
- activation of pregnenolone esterification by sterol ([3]; ACAT1): much less efficiently than sitosterol
